The data set can be described thus: T1 relaxation in human full blood. The data set is classed as physicochemical. Particulars: human full blood at 37° C.

`CC(=O)C(=O)O` [[1-^13C]pyruvate, ^13C1-pyruvate]: the T1 relaxation result is reported as “about 42 s”.

The record behind these values is patent US20120128593A1, “USE OF A MAGNETIC RESONANCE IMAGING MEDIUM COMPRISING HYPERPOLARIZED 13C PYRUVATE FOR THE DETECTION OF INFLAMMATION OR INFECTION” (priority 2010, published 2012).
